The results in this text go back to ChEMBL document CHEMBL1152211, “Structure-activity study at positions 3 and 4 of human neuropeptide S” (Bioorg Med Chem, 2008).

A word on the EC50: it is the concentration at which the effect is half-maximal.

Non-standard residues stand in square brackets, D forms with d. Residues, ends and D or L forms follow the SMILES beside them. Arg(Me2a) = CN(C)C(=N)NCCC[C@H](N)C(=O)O; Arg(Me2s) = CN=C(NC)NCCC[C@H](N)C(=O)O; Nva(4-oxo) = CC(=O)C[C@H](N)C(=O)O; 2Pal = N[C@@H](Cc1ccccn1)C(=O)O; 4Pal = N[C@@H](Cc1ccncc1)C(=O)O; Dab = NCC[C@H](N)C(=O)O; Nva = CCC[C@H](N)C(=O)O

The first assay deals with T1, Neuropeptide S receptor (Mus musculus) (UniProt Q8BZP8).
T1 sequence (whole entry): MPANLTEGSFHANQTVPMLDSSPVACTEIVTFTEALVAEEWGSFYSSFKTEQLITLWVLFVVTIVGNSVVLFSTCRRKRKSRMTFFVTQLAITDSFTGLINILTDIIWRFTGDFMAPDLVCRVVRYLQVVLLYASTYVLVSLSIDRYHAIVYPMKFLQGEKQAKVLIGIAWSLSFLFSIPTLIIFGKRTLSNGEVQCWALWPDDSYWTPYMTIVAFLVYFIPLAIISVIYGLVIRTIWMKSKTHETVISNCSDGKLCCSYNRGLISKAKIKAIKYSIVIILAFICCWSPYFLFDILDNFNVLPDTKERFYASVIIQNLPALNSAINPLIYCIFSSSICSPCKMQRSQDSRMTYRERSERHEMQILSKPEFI
As to the kind of experiment: Agonist activity at mouse NPSR expressed in HEK293 cells assessed as increase in intracellular calcium mobilization at 10 uM by FLIPR. The class given is functional, cell-based. (In general: Calcium assays in cells follow changes in intracellular calcium, usually with a dye or a luminescent sensor.)
With `CSCC[C@H](NC(=O)CNC(=O)[C@@H](NC(=O)CNC(=O)[C@@H](NC(=O)CNC(=O)[C@H](CCN)NC(=O)[C@H](CCCNC(=N)N)NC(=O)[C@H](Cc1ccccc1)NC(=O)[C@@H](N)CO)C(C)C)[C@@H](C)O)C(=O)N[C@@H](CCCCN)C(=O)N[C@@H](CCCCN)C(=O)N[C@H](C(=O)N[C@@H](CO)C(=O)N[C@@H](Cc1ccccc1)C(=O)N[C@@H](CCC(N)=O)C(=O)N[C@@H](CCCNC(=N)N)C(=O)N[C@@H](C)C(=O)N[C@@H](CCCCN)C(=O)N[C@@H](CO)C(=O)O)[C@@H](C)O` (H-SFR[Dab]GVGTGMKKTSFQRAKS-OH), the Activity stood at 169%.
`CSCC[C@H](NC(=O)CNC(=O)[C@@H](NC(=O)CNC(=O)[C@@H](NC(=O)CNC(=O)[C@H](CC(C)=O)NC(=O)[C@H](CCCNC(=N)N)NC(=O)[C@H](Cc1ccccc1)NC(=O)[C@@H](N)CO)C(C)C)[C@@H](C)O)C(=O)N[C@@H](CCCCN)C(=O)N[C@@H](CCCCN)C(=O)N[C@H](C(=O)N[C@@H](CO)C(=O)N[C@@H](Cc1ccccc1)C(=O)N[C@@H](CCC(N)=O)C(=O)N[C@@H](CCCNC(=N)N)C(=O)N[C@@H](C)C(=O)N[C@@H](CCCCN)C(=O)N[C@@H](CO)C(=O)O)[C@@H](C)O` (H-SFR[Nva(4-oxo)]GVGTGMKKTSFQRAKS-OH): the Activity is 136%.
With `CSCC[C@H](NC(=O)CNC(=O)[C@@H](NC(=O)CNC(=O)[C@@H](NC(=O)CNC(=O)[C@H](CC(N)=O)NC(=O)[C@H](Cc1ccncc1)NC(=O)[C@H](Cc1ccccc1)NC(=O)[C@@H](N)CO)C(C)C)[C@@H](C)O)C(=O)N[C@@H](CCCCN)C(=O)N[C@@H](CCCCN)C(=O)N[C@H](C(=O)N[C@@H](CO)C(=O)N[C@@H](Cc1ccccc1)C(=O)N[C@@H](CCC(N)=O)C(=O)N[C@@H](CCCNC(=N)N)C(=O)N[C@@H](C)C(=O)N[C@@H](CCCCN)C(=O)N[C@@H](CO)C(=O)O)[C@@H](C)O` (H-SF[4Pal]NGVGTGMKKTSFQRAKS-OH), the Activity was 154%.
On to H-SFNNGVGTGMKKTSFQRAKS-OH, for which the Activity was determined as 161%.
As for `CSCC[C@H](NC(=O)CNC(=O)[C@@H](NC(=O)CNC(=O)[C@@H](NC(=O)CNC(=O)[C@H](CC(N)=O)NC(=O)[C@H](Cc1ccccn1)NC(=O)[C@H](Cc1ccccc1)NC(=O)[C@@H](N)CO)C(C)C)[C@@H](C)O)C(=O)N[C@@H](CCCCN)C(=O)N[C@@H](CCCCN)C(=O)N[C@H](C(=O)N[C@@H](CO)C(=O)N[C@@H](Cc1ccccc1)C(=O)N[C@@H](CCC(N)=O)C(=O)N[C@@H](CCCNC(=N)N)C(=O)N[C@@H](C)C(=O)N[C@@H](CCCCN)C(=O)N[C@@H](CO)C(=O)O)[C@@H](C)O` (H-SF[2Pal]NGVGTGMKKTSFQRAKS-OH), the Activity worked out at 19%.
As to `CCC[C@H](NC(=O)[C@H](CCCNC(=N)N)NC(=O)[C@H](Cc1ccccc1)NC(=O)[C@@H](N)CO)C(=O)NCC(=O)N[C@H](C(=O)NCC(=O)N[C@H](C(=O)NCC(=O)N[C@@H](CCSC)C(=O)N[C@@H](CCCCN)C(=O)N[C@@H](CCCCN)C(=O)N[C@H](C(=O)N[C@@H](CO)C(=O)N[C@@H](Cc1ccccc1)C(=O)N[C@@H](CCC(N)=O)C(=O)N[C@@H](CCCNC(=N)N)C(=O)N[C@@H](C)C(=O)N[C@@H](CCCCN)C(=O)N[C@@H](CO)C(=O)O)[C@@H](C)O)[C@@H](C)O)C(C)C` (H-SFR[Nva]GVGTGMKKTSFQRAKS-OH), the Activity came to 240%.
For `CNC(=O)C[C@H](NC(=O)[C@H](CCCNC(=N)N)NC(=O)[C@H](Cc1ccccc1)NC(=O)[C@@H](N)CO)C(=O)NCC(=O)N[C@H](C(=O)NCC(=O)N[C@H](C(=O)NCC(=O)N[C@@H](CCSC)C(=O)N[C@@H](CCCCN)C(=O)N[C@@H](CCCCN)C(=O)N[C@H](C(=O)N[C@@H](CO)C(=O)N[C@@H](Cc1ccccc1)C(=O)N[C@@H](CCC(N)=O)C(=O)N[C@@H](CCCNC(=N)N)C(=O)N[C@@H](C)C(=O)N[C@@H](CCCCN)C(=O)N[C@@H](CO)C(=O)O)[C@@H](C)O)[C@@H](C)O)C(C)C` (H-SFRD(NHMe)GVGTGMKKTSFQRAKS-OH), the Activity came to 188%.
With H-SFSNGVGTGMKKTSFQRAKS-OH, the Activity stood at 175%.
Still for that read-out and setting: in the case of H-SFRDGVGTGMKKTSFQRAKS-OH it was 146%; in that of H-SFDNGVGTGMKKTSFQRAKS-OH, 73%.

The target in the next assay is T2, Neuropeptide S receptor (Mus musculus, UniProt Q8BZP8).
T2 sequence (Q8BZP8 whole entry): T1 sequence (whole entry)
Briefly: Agonist activity at mouse NPSR expressed in HEK293 cells assessed as increase in intracellular calcium mobilization by FLIPR. The class given is functional, cell-based.
On to `CSCC[C@H](NC(=O)CNC(=O)[C@@H](NC(=O)CNC(=O)[C@@H](NC(=O)CNC(=O)[C@H](CC(N)=O)NC(=O)[C@H](CCCNC(=N)N(C)C)NC(=O)[C@H](Cc1ccccc1)NC(=O)[C@@H](N)CO)C(C)C)[C@@H](C)O)C(=O)N[C@@H](CCCCN)C(=O)N[C@@H](CCCCN)C(=O)N[C@H](C(=O)N[C@@H](CO)C(=O)N[C@@H](Cc1ccccc1)C(=O)N[C@@H](CCC(N)=O)C(=O)N[C@@H](CCCNC(=N)N)C(=O)N[C@@H](C)C(=O)N[C@@H](CCCCN)C(=O)N[C@@H](CO)C(=O)O)[C@@H](C)O` (H-SF[Arg(Me2a)]NGVGTGMKKTSFQRAKS-OH), for which the EC50 is 22.4 nM.
On the same count and under the same terms, in the case of `C/N=C(/NC)NCCC[C@H](NC(=O)[C@H](Cc1ccccc1)NC(=O)[C@@H](N)CO)C(=O)N[C@@H](CC(N)=O)C(=O)NCC(=O)N[C@H](C(=O)NCC(=O)N[C@H](C(=O)NCC(=O)N[C@@H](CCSC)C(=O)N[C@@H](CCCCN)C(=O)N[C@@H](CCCCN)C(=O)N[C@H](C(=O)N[C@@H](CO)C(=O)N[C@@H](Cc1ccccc1)C(=O)N[C@@H](CCC(N)=O)C(=O)N[C@@H](CCCNC(=N)N)C(=O)N[C@@H](C)C(=O)N[C@@H](CCCCN)C(=O)N[C@@H](CO)C(=O)O)[C@@H](C)O)[C@@H](C)O)C(C)C` (H-SF[Arg(Me2s)]NGVGTGMKKTSFQRAKS-OH) it was 31.6 nM.
